Laboratory results: article PMC9917201, “Enhanced Antibacterial Activity of Substituted Derivatives of NCR169C Peptide” (International Journal of Molecular Sciences, 2023)
In brackets after ≈: the same amount, converted by molar mass. Where two headings read alike, the source gives them in different places. Non-standard residues stand in square brackets, D forms with d. Residues, ends and D or L forms follow the SMILES beside them. ξ: configuration not given here. Trp(5-F) = N[C@@H](Cc1c[nH]c2ccc(F)cc12)C(=O)O; ξTrp(5-OMe) = COc1ccc2[nH]cc(CC(N)C(=O)O)c2c1; ξTrp(5-Me) = Cc1ccc2[nH]cc(CC(N)C(=O)O)c2c1

Assays:
Assay type in all cases: cell-based
[1] = tested on: Escherichia coli (ATCC 8739); conditions: ATCC 8739, 3 h, pH 7.4
From the text: (§1) The bacterial strains for the antimicrobial assay were obtained from the ATCC (American Type Culture Collection, Manassas, VA, USA) and NCTC (National Collection of Type Cultures, Salisbury, UK). Gram-negative strains were Pseudomonas aeruginosa (ATCC 27853), Escherichia coli (ATCC 8739, ATCC 35218, and ATCC 25922), Salmonella enterica (ATCC 13076), Klebsiella pneumoniae (NCTC 13440), Acinetobacter baumannii (ATCC 17978) and the Gram-positive strains were Enterococcus faecalis (ATCC 29212), Listeria monocytogenes (ATCC 19111), and Staphylococcus aureus (HNCMO112011 and ATCC 25923).
(§2) Determination of antibacterial activity for the peptides was carried out by utilizing a minimum bactericidal concentration (MBC) bioassay. Synthesized peptides were dissolved in sterile water and used from 25 to 0.125 μM in 2-fold dilution series and incubated with ~10^7 log phase bacteria in Potassium-Phosphate Buffer (PPB, pH: 7.4) for three hours as described earlier. After that, 5 μl of each sample was placed on LB agar and the growth of bacteria was monitored after overnight incubation at 37 °C. The lowest concentration of the antimicrobial agents that completely eliminated viable bacteria was considered the minimal bactericidal concentration (MBC).

[2] = tested on: Enterococcus faecalis (ATCC 29212)
From the text: as §1, §2

[3] = tested on: Staphylococcus aureus (HNCMO112011); conditions: HNCMO112011, 3 h, pH 7.4
From the text: as §1, §2

[4] = tested on: Salmonella enterica (ATCC 13076); conditions: ATCC 13076, 3 h, pH 7.4
From the text: as §1, §2

[5] = tested on: Listeria monocytogenes (ATCC 19111); conditions: ATCC 19111, 3 h, pH 7.4
From the text: as §1, §2

[6] = tested on: Pseudomonas aeruginosa (ATCC 27853); conditions: ATCC 27853, 3 h, pH 7.4
From the text: as §1, §2

[7] = tested on: Acinetobacter baumannii (ATCC 17978)
From the text: as §1, §2

[8] = tested on: Klebsiella pneumoniae (NCTC 13440); conditions: NCTC 13440, 3 h, pH 7.4
From the text: as §1, §2

[9] = tested on: tested bacteria (ESKAPE pathogens, Listeria monocytogenes, Salmonella enterica); conditions: 3 h, pH 7.4
From the text: as §1, §2

[10] = Acinetobacter baumannii ATCC 17978, ~10^7 log phase bacteria, 3 h in PPB pH 7.4, peptide 25 to 0.125 μM 2-fold series, plated on LB agar, overnight 37 °C

Row | Compound | Minimal bactericidal concentration (MBC) E. c. [1] [µM] | Minimal bactericidal concentration (MBC) E. f. ([2]; ATCC 29212, 3 h, pH 7.4) [µM] | Minimal bactericidal concentration (MBC) S. a. [3] [µM] | Minimal bactericidal concentration (MBC) S. e. [4] [µM] | Minimal bactericidal concentration (MBC) L. m. [5] [µM] | Minimal bactericidal concentration (MBC) P. a. [6] [µM] | Minimal bactericidal concentration (MBC) A. b. [7, 10] [µM] | Minimal bactericidal concentration (MBC) K. p. [8] [µM] | MBC against most or all of the tested bacteria [9] [µM] | Minimal bactericidal concentration (MBC) A. b. ([7]; ATCC 17978, 3 h, pH 7.4) [µM] | Minimal bactericidal concentration (MBC) E. f. ([2]; Enterococcus faecalis ATCC 29212, ~10^7 log phase bacteria, 3 h in potassium-phosphate buffer (PPB) pH 7.4, peptide 25 to 0.125 μM 2-fold series, 5 μl on LB agar, overnight 37 °C) [µM]
1 | CC[C@H](C)[C@H](NC(=O)[C@H](CCCCN)NC(=O)[C@H](Cc1ccccc1)NC(=O)[C@H](CC(C)C)NC(=O)[C@@H]1CCCN1C(=O)[C@H](CCCCN)NC(=O)[C@H](CCCCN)NC(=O)[C@H](CO)NC(=O)[C@@H](N)CCCCN)C(=O)NC(Cc1c[nH]c2ccc(C)cc12)C(=O)N[C@@H](CCCCN)C(=O)N[C@@H](CO)C(=O)N[C@H](C(=O)N[C@@H](CCC(=O)O)C(=O)N[C@@H](CC(N)=O)C(=O)N[C@H](C(=O)N[C@@H](CO)C(=O)N[C@H](C(=O)N[C@@H](CC(C)C)C(=O)N[C@@H](Cc1c[nH]c2ccccc12)C(=O)N[C@@H](Cc1ccc(O)cc1)C(=O)N[C@@H](CCCCN)C(N)=O)C(C)C)C(C)C)C(C)C (stereo partly shown) [NCR169C17–38C12,17/S-10W^5-Me II] (H-KSKKPLFKI[ξTrp(5-Me)]KSVENVSVLWYK-NH2; N-terminus assumed) | 3.1 (≈ 8.44 µg/mL) | 3.1 (≈ 8.44 µg/mL) | 3.1 (≈ 8.44 µg/mL) | 3.1 (≈ 8.44 µg/mL) | 3.1 (≈ 8.44 µg/mL) | 3.1 (≈ 8.44 µg/mL) | 3.1 (≈ 8.44 µg/mL) | 6.3 (≈ 17.1 µg/mL) |  |  | 
2 | CC[C@H](C)[C@H](NC(=O)[C@H](CCCCN)NC(=O)[C@H](Cc1ccccc1)NC(=O)[C@H](CC(C)C)NC(=O)[C@@H]1CCCN1C(=O)[C@H](CCCCN)NC(=O)[C@H](CCCCN)NC(=O)[C@H](CO)NC(=O)[C@@H](N)CCCCN)C(=O)NC(Cc1c[nH]c2ccc(C)cc12)C(=O)N[C@@H](CCCCN)C(=O)N[C@@H](CO)C(=O)N[C@H](C(=O)N[C@@H](CCC(=O)O)C(=O)N[C@@H](CC(N)=O)C(=O)N[C@H](C(=O)N[C@@H](CO)C(=O)N[C@H](C(=O)N[C@@H](CC(C)C)C(=O)N[C@@H](Cc1c[nH]c2ccccc12)C(=O)N[C@@H](Cc1ccc(O)cc1)C(=O)N[C@@H](CCCCN)C(N)=O)C(C)C)C(C)C)C(C)C (stereo partly shown) [NCR169C17–38C12,17/S-10W^5-Me I] (H-KSKKPLFKI[ξTrp(5-Me)]KSVENVSVLWYK-NH2; N-terminus assumed) | 3.1 (≈ 8.44 µg/mL) | 3.1 (≈ 8.44 µg/mL) | 3.1 (≈ 8.44 µg/mL) | 3.1 (≈ 8.44 µg/mL) | 3.1 (≈ 8.44 µg/mL) | 3.1 (≈ 8.44 µg/mL) | 6.3 (≈ 17.1 µg/mL) | 6.3 (≈ 17.1 µg/mL) |  |  | 
3 | CC[C@H](C)[C@H](NC(=O)[C@H](CCCCN)NC(=O)[C@H](Cc1ccccc1)NC(=O)[C@H](CC(C)C)NC(=O)[C@@H]1CCCN1C(=O)[C@H](CCCCN)NC(=O)[C@H](CCCCN)NC(=O)[C@H](CO)NC(=O)[C@@H](N)CCCCN)C(=O)NC(Cc1c[nH]c2ccc(OC)cc12)C(=O)N[C@@H](CCCCN)C(=O)N[C@@H](CO)C(=O)N[C@H](C(=O)N[C@@H](CCC(=O)O)C(=O)N[C@@H](CC(N)=O)C(=O)N[C@H](C(=O)N[C@@H](CO)C(=O)N[C@H](C(=O)N[C@@H](CC(C)C)C(=O)N[C@@H](Cc1c[nH]c2ccccc12)C(=O)N[C@@H](Cc1ccc(O)cc1)C(=O)N[C@@H](CCCCN)C(N)=O)C(C)C)C(C)C)C(C)C (stereo partly shown) [NCR169C17–38C12,17/S-10W^5-MeO I] (H-KSKKPLFKI[ξTrp(5-OMe)]KSVENVSVLWYK-NH2; N-terminus assumed) | 3.1 (≈ 8.49 µg/mL) | 1.6 (≈ 4.38 µg/mL) | 1.6 (≈ 4.38 µg/mL) | 1.6 (≈ 4.38 µg/mL) | 1.6 (≈ 4.38 µg/mL) |  |  | 1.6 (≈ 4.38 µg/mL) | 1.6 | 1.6 (≈ 4.38 µg/mL) | 
4 | CC[C@H](C)[C@H](NC(=O)[C@H](CCCCN)NC(=O)[C@H](Cc1ccccc1)NC(=O)[C@H](CC(C)C)NC(=O)[C@@H]1CCCN1C(=O)[C@H](CCCCN)NC(=O)[C@H](CCCCN)NC(=O)[C@H](CO)NC(=O)[C@@H](N)CCCCN)C(=O)N[C@@H](Cc1c[nH]c2ccccc12)C(=O)N[C@@H](CCCCN)C(=O)N[C@@H](CO)C(=O)N[C@H](C(=O)N[C@@H](CCC(=O)O)C(=O)N[C@@H](CC(N)=O)C(=O)N[C@H](C(=O)N[C@@H](CO)C(=O)N[C@H](C(=O)N[C@@H](CC(C)C)C(=O)N[C@@H](Cc1c[nH]c2ccc(F)cc12)C(=O)N[C@@H](Cc1ccc(O)cc1)C(=O)N[C@@H](CCCCN)C(N)=O)C(C)C)C(C)C)C(C)C [NCR169C17–38C12,17/S-20W^5-F-L] (H-KSKKPLFKIWKSVENVSVL[Trp(5-F)]YK-NH2; N-terminus assumed) | 3.1 (≈ 8.45 µg/mL) | 3.1 (≈ 8.45 µg/mL) | 1.6 (≈ 4.36 µg/mL) | 3.1 (≈ 8.45 µg/mL) | 3.1 (≈ 8.45 µg/mL) | 6.3 (≈ 17.2 µg/mL) |  | 3.1 (≈ 8.45 µg/mL) |  | 3.1 (≈ 8.45 µg/mL) | 
5 | CC[C@H](C)[C@H](NC(=O)[C@H](CCCCN)NC(=O)[C@H](Cc1ccccc1)NC(=O)[C@H](CC(C)C)NC(=O)[C@@H]1CCCN1C(=O)[C@H](CCCCN)NC(=O)[C@H](CCCCN)NC(=O)[C@H](CO)NC(=O)[C@@H](N)CCCCN)C(=O)N[C@@H](Cc1c[nH]c2ccccc12)C(=O)N[C@@H](CCCCN)C(=O)N[C@@H](CO)C(=O)N[C@H](C(=O)N[C@@H](CCC(=O)O)C(=O)N[C@@H](CC(N)=O)C(=O)N[C@H](C(=O)N[C@@H](CO)C(=O)N[C@H](C(=O)N[C@@H](CC(C)C)C(=O)NC(Cc1c[nH]c2ccc(C)cc12)C(=O)N[C@@H](Cc1ccc(O)cc1)C(=O)N[C@@H](CCCCN)C(N)=O)C(C)C)C(C)C)C(C)C (stereo partly shown) [NCR169C17–38C12,17/S-20W^5-Me II] (H-KSKKPLFKIWKSVENVSVL[ξTrp(5-Me)]YK-NH2; N-terminus assumed) | 1.6 (≈ 4.35 µg/mL) |  | 3.1 (≈ 8.44 µg/mL) | 3.1 (≈ 8.44 µg/mL) | 3.1 (≈ 8.44 µg/mL) | 3.1 (≈ 8.44 µg/mL) |  | 3.1 (≈ 8.44 µg/mL) |  | 3.1 (≈ 8.44 µg/mL) | 25 (≈ 68 µg/mL)
6 | CC[C@H](C)[C@H](NC(=O)[C@H](CCCCN)NC(=O)[C@H](Cc1ccccc1)NC(=O)[C@H](CC(C)C)NC(=O)[C@@H]1CCCN1C(=O)[C@H](CCCCN)NC(=O)[C@H](CCCCN)NC(=O)[C@H](CO)NC(=O)[C@@H](N)CCCCN)C(=O)N[C@@H](C)C(=O)N[C@@H](CCCCN)C(=O)N[C@@H](CO)C(=O)N[C@H](C(=O)N[C@@H](CCC(=O)O)C(=O)N[C@@H](CC(N)=O)C(=O)N[C@H](C(=O)N[C@@H](CO)C(=O)N[C@H](C(=O)N[C@@H](CC(C)C)C(=O)N[C@@H](C)C(=O)N[C@@H](Cc1ccc(O)cc1)C(=O)N[C@@H](CCCCN)C(N)=O)C(C)C)C(C)C)C(C)C [NCR169C17–38W10,20/A,C12,17/S] (H-KSKKPLFKIAKSVENVSVLAYK-NH2) | 6.3 (≈ 15.6 µg/mL) | 25 (≈ 61.9 µg/mL) | 6.3 (≈ 15.6 µg/mL) | 6.3 (≈ 15.6 µg/mL) | 3.1 (≈ 7.68 µg/mL) | 3.1 (≈ 7.68 µg/mL) |  |  |  | 12.5 (≈ 31 µg/mL) | 
7 | CC[C@H](C)[C@H](NC(=O)[C@H](CCCCN)NC(=O)[C@H](Cc1ccccc1)NC(=O)[C@H](CC(C)C)NC(=O)[C@@H]1CCCN1C(=O)[C@H](CCCCN)NC(=O)[C@H](CCCCN)NC(=O)[C@H](CO)NC(=O)[C@@H](N)CCCCN)C(=O)N[C@@H](C)C(=O)N[C@@H](CCCCN)C(=O)N[C@@H](C)C(=O)N[C@H](C(=O)N[C@@H](CCC(=O)O)C(=O)N[C@@H](CC(N)=O)C(=O)N[C@H](C(=O)N[C@@H](C)C(=O)N[C@H](C(=O)N[C@@H](CC(C)C)C(=O)N[C@@H](C)C(=O)N[C@@H](Cc1ccc(O)cc1)C(=O)N[C@@H](CCCCN)C(N)=O)C(C)C)C(C)C)C(C)C [NCR169C17–38W10,20C12,17/A] (H-KSKKPLFKIAKAVENVAVLAYK-NH2) | 6.3 (≈ 15.4 µg/mL) |  | 6.3 (≈ 15.4 µg/mL) | 6.3 (≈ 15.4 µg/mL) |  | 3.1 (≈ 7.58 µg/mL) |  |  |  | 12.5 (≈ 30.6 µg/mL) | 
